Literature values as cited in patent US20070203225A1, “METHOD OF INCREASING ENDOGENOUS ADIPONECTIN PRODUCTION AND LEPTIN PRODUCTION” (priority 2001, published 2007).

Assays:
Details in all cases: metformin 1.0 mM with 0.16 nM insulin, n=18; cited from earlier work
[1] = tested on: isolated rat adipocytes
[2] = tested on: isolated rat adipocytes; remark: listed apart in the source
[3] = tested on: isolated rat adipocytes; remark: listed apart in the source

**Q.** What does the source list for `CN(C)C(=N)N=C(N)N` [metformin]?
**A.** effect on glucose utilization (in words) [1]: increases; effect on leptin secretion (in words) [2]: inhibits; effect on proportion of glucose metabolized to lactate (in words) [3]: increases
